Like-named read-outs stand apart in the source and are kept apart here.
Experiments:
[1] = system: human beta-coronavirus OC43; experiment: microbe, parasite or virus in culture; format: cell-based; conditions: Betacoronavirus 1, OC43, HeLa, 144 h
in vitro = conditions: African green monkey, VeroE6 + CP (CC50), Vero E6-eGFP cells with CP-100356, absence of virus, MTS
[2] = system: SARS-CoV-2-GHB-03021/2020; experiment: microbe, parasite or virus in culture; format: cell-based; conditions: Severe acute respiratory syndrome coronavirus 2, Vero C1008, 96 h; read-out: VeroE6 + CP (EC50)
human cathepsin L = biological target: T1, human cathepsin L (Homo sapiens, UniProt P07711); experiment: cathepsin L assay; format: biochemical; conditions: 10 pM human cathepsin L, Z-FR-AMC 2 μM, class symbols
T1 construct: purchased R&D Systems
Description: For the cathepsin L assay, 10 pM of human cathepsin L (R&D Systems; Minneapolis, MN) was preincubated for 30 mins with test compounds. Reactions were initiated by the addition of a peptide substrate Z-FR-AMC (final concentration 2 μM, Anaspec; Fremont, CA). Fluorescence was measured at 2-minute intervals for 30 mins using a 355/460 excitation/emission filter module on an Envision plate reader (Perkin Elmer; Waltham, MA). The IC50 values were calculated for each assay by fitting the curves using a four-parameter equation in GraphPad Prism.

3CLpro = 3CLpro (Severe acute respiratory syndrome coronavirus 2, UniProt P0DTD1); experiment: SARS-CoV-2 3CLpro protease assay (duplex, SAMDI-MS); format: biochemical; set-up: For the duplex assay, 3CLpro and HRV3C was added; conditions: 3CLpro, 30 mins preincubation, read-out: SARS-Cov-2 IC50
[3] = Cytotoxicity plates without OC43 virus (cell-titer-glo); format: cell-based, human; conditions: human; HeLa cells without OC43 virus, class symbols
Description: The human beta-coronavirus OC43 was purchased from ATCC (Manassas, VA) and propagated using HCT-8 human colorectal epithelial cells (ATCC). HeLa human cervical epithelial cells (ATCC) were used as susceptible host cell lines and were cultured using EMEM media, supplemented with 10% fetal bovine serum (FBS), 1% (v/v) penicillin/streptomycin (P/S), 1% (v/v) HEPES and 1% (v/v) Cellgro Glutagro™ supplement (all Corning, Manassas, VA) at 37° C. For the OC43 antiviral assay, 1.5×10^4 HeLa cells per well were plated in 100 μL complete media in white 96-well plates with clear bottoms at 37° C. for up to 24 h to facilitate attachment and allow cells to recover from seeding stresses. Next day, the cell culture medium was removed. Serially diluted compounds in 100 μL assay media (EMEM, 2% FBS, 1% P/S, 1% Cellgro Glutagro™ supplement, 1% HEPES) were added to the cells and incubated for 4H at 37° C. in a humidified 5% CO2 incubator. 100 μL of OC43 virus stock was diluted to a concentration known to produce optimal cytopathic effect, inducing 80-90% reduction in cell viability. 96-well plates were incubated for 6 (HeLa) days at 33° C.; each plate contains uninfected control wells as well as virus-infected wells that were not treated with compound. Cytotoxicity plates without the addition of OC43 virus were carried out in parallel. At the end of the incubation period, 100 μL cell culture supernatant was replaced with 100 μL cell-titer-glo reagent (Promega, Madison, WI) and incubated for at least 10 min at rt prior to measuring luminescence. Luminescence was measured on a Perkin Elmer (Waltham, MA) Envision plate reader. Antiviral % inhibition was calculated as follows: [(Compound treated cells infected sample)−(no compound infected control)]/[(Uninfected control)−(no compound infected control)]*100; Using GraphPad (San Diego, CA) prism software version 8.3.1, the antiviral dose-response plot was generated as a sigmoidal fit, log(inhibitor) vs response-variable slope (four parameters) model and the EC50 was calculated which is the predicted compound concentration corresponding to a 50% inhibition of the viral cytopathic effect.

HRV3C = HRV3C (Human rhinovirus 14, UniProt P03303); experiment: HRV3C protease assay (duplex, SAMDI-MS); format: biochemical, HRV; conditions: 30 mins preincubation
Description: Protease assays were performed in 384-well low volume polypropylene microtiter plates at ambient temperature. For the duplex assay, 3CLpro and HRV3C was added using a Multidrop Combi (Thermo Scientific; Waltham, MA) and preincubated for 30 mins with small molecules. The reactions were initiated by the addition of the two peptide substrates. The reactions were incubated for 30 mins and quenched by the addition of 0.5% formic acid (final) with subsequent neutralization using 1% sodium bicarbonate (final). Internal standard peptides were added in 20 mM Hepes pH 8.0 for quantitation of the protease products. For SAMDI-MS analysis, 2 μL of each reaction mixture was transferred using a 384-channel automated liquid handler to SAMDI biochip arrays functionalized with a neutravidin-presenting self-assembled monolayer. The SAMDI arrays were incubated for 1 h in a humidified chamber to allow the specific immobilization of the biotinylated peptide substrates, cleaved products and internal standards. The samples were purified by washing the SAMDI arrays with deionized ultrafiltered water and dried with compressed air. A matrix comprising alpha-cyano cinnamic acid in 80% acetonitrile:20% aqueous ammonium citrate was applied in an automated format by dispensing 50 nL to each spot in the array. SAMDI-MS was performed using reflector-positive mode on an AB Sciex TOF-TOF 5800 System (AB Sciex, Framingham, MA) with 400 shots/spot analyzed in a random raster sampling. For data analysis, area under the curves (peaks) (AUCs) for the product and internal standard were calculated using the TOF/TOF Series Explorer (AB Sciex), and the amount of product formed was calculated using the equation (AUC product/AUC internal standard). The amount of product generated was calculated using the ratio of product area under the curve (AUC) divided by the AUC of the internal standard. Negative controls were pre-quenched with 0.5% formic acid final. Assay robustness was determined by Z-Factor. The IC50s were determined by fitting the curves using a four-parameter equation in Graphpad Prism 8.

[4] = OC43 in HeLa cells, 6 days at 33° C., class symbols, read-out: EC50
[5] = HRV3C, class symbols, read-out: HRV IC50
[6] = OC43 in HeLa cells, 6 days at 33° C., bound, read-out: EC50

Row | Compound | EC50 [1, 4] [µM] | CC50 (in vitro; numeric bounds) [µM] | EC50 [2] [µM] | IC50 (human cathepsin L) [µM] | IC50 (3CLpro; class symbols) [µM] | CC50 at 6 days [3] [µM] | IC50 (HRV3C; [5]) [µM] | EC50 [1] [µM] | CC50 (in vitro; class symbols) [µM] | IC50 (3CLpro; bound) [µM] | IC50 (HRV3C; HRV IC50, HRV3C, bound) [µM] | EC50 [1, 6] [µM] | IC50 (HRV3C; HRV IC50, HRV3C, class symbols) [µM] | IC50 (HRV3C; HRV3C, bound, read-out: HRV IC50) [µM]
1 | O=C[C@H](C[C@@H]1CCNC1=O)NC(=O)[C@@H]1[C@H]2CCC[C@H]2CN1C(=O)c1cc2ccccc2[nH]1 [Compound 13, (1S,3aR,6aS)-2-(1H-indole-2-carbonyl)-N-[(2S)-1-oxo-3-[(3S)-2-oxopyrrolidin-3-yl]propan-2-yl]-hexahydro-1H-cyclopenta[c]pyrrole-1-carboxamide] | 1 to 10 | > 100 | 1 to 10 | 1 to 10 | < 0.02 | > 10 | 0.2 to 2 | – | – | – | – | – | – | –
2 | COc1cccc2[nH]c(C(=O)N3C[C@@H]4CCC[C@@H]4[C@H]3C(=O)N[C@H](C=O)C[C@@H]3CCNC3=O)cc12 [Compound 14A, (1S,3aR,6aS)-2-(4-methoxy-1H-indole-2-carbonyl)-N-[(2S)-1-oxo-3-[(3S)-2-oxopyrrolidin-3-yl]propan-2-yl]-hexahydro-1H-cyclopenta[c]pyrrole-1-carboxamide] | 1 to 10 | > 100 | 10 to 100 | ≥ 10 | 0.02 to 0.2 | > 10 | 0.2 to 2 | – | – | – | – | – | – | –
3 | COc1cccc2[nH]c(C(=O)N3C[C@@H]4CCC[C@@H]4[C@H]3C(=O)N[C@@H](C[C@@H]3CCNC3=O)C(=O)c3cnc[nH]3)cc12 [Compound 74, (1S,3aR,6aS)—N-[(2S)-1-(3H-imidazol-4-yl)-1-oxo-3-[(3S)-2-oxopyrrolidin-3-yl]propan-2-yl]-2-(4-methoxy-1H-indole-2-carbonyl)-hexahydro-1H-cyclopenta[c]pyrrole-1-carboxamide] | – | – | 10 to 100 | ≥ 10 | – | > 10 | – | > 10 | > 10 | > 10 | > 10 | – | – | –
4 | COc1cccc2[nH]c(C(=O)N3C[C@@H]4CCC[C@@H]4[C@H]3C(=O)N[C@@H](C[C@@H]3CCNC3=O)C(=O)c3nc4ccccc4o3)cc12 [Compound 75, (1S,3aR,6aS)—N-[(2S)-1-(1,3-benzoxazol-2-yl)-1-oxo-3-[(3S)-2-oxopyrrolidin-3-yl]propan-2-yl]-2-(4-methoxy-1H-indole-2-carbonyl)-hexahydro-1H-cyclopenta[c]pyrrole-1-carboxamide] | 0.1 to 1 | > 100 | 1 to 10 | ≥ 10 | 0.02 to 0.2 | > 10 | – | – | – | – | > 10 | – | – | –
5 | O=C1NCC[C@H]1C[C@H](NC(=O)[C@@H]1[C@H]2CCC[C@H]2CN1C(=O)c1cc2c(=O)[nH]ccc2[nH]1)C(=O)CO [Compound 76, (1S,3aR,6aS)—N-[(2S)-4-hydroxy-3-oxo-1-[(3S)-2-oxopyrrolidin-3-yl]butan-2-yl]-2-{4-oxo-1H,5H-pyrrolo[3,2-c]pyridine-2-carbonyl}-hexahydro-1H-cyclopenta[c]pyrrole-1-carboxamide] | – | > 100 | 10 to 100 | ≥ 10 | 0.02 to 0.2 | > 10 | – | – | – | – | – | > 10 | 0.2 to 2 | –
6 | Cn1ccc2[nH]c(C(=O)N3C[C@@H]4CCC[C@@H]4[C@H]3C(=O)N[C@@H](C[C@@H]3CCNC3=O)C(=O)CO)cc2c1=O [Compound 77, (1S,3aR,6aS)—N—((S)-4-hydroxy-3-oxo-1-((S)-2-oxopyrrolidin-3-yl)butan-2-yl)-2-(5-methyl-4-oxo-4,5-dihydro-1H-pyrrolo[3,2-c]pyridine-2-carbonyl)octahydrocyclopenta[c]pyrrole-1-carboxamide] | – | – | 10 to 100 | ≥ 10 | 0.02 to 0.2 | > 10 | – | > 10 | > 10 | – | – | – | 2 to 20 | –
7 | O=C1NCC[C@H]1C[C@H](NC(=O)[C@@H]1[C@H]2CCC[C@H]2CN1C(=O)c1cc2ncccc2[nH]1)C(=O)CO [Compound 78, (1S,3aR,6aS)—N—((S)-4-hydroxy-3-oxo-1-((S)-2-oxopyrrolidin-3-yl)butan-2-yl)-2-(1H-pyrrolo[3,2-b]pyridine-2-carbonyl)octahydrocyclopenta[c]pyrrole-1-carboxamide] | 1 to 10 | > 100 | 10 to 100 | ≥ 10 | 0.02 to 0.2 | > 10 | 2 to 20 | – | – | – | – | – | – | –
8 | COc1cccc2[nH]c(C(=O)N3C[C@@H]4CCC[C@@H]4[C@H]3C(=O)N[C@@H](C[C@@H]3CCNC3=O)C(=O)c3nc4ccccc4[nH]3)cc12 [Compound 92, (1S,3aR,6aS)—N-[(2S)-1-(1H-1,3-benzodiazol-2-yl)-1-oxo-3-[(3S)-2-oxopyrrolidin-3-yl]propan-2-yl]-2-(4-methoxy-1H-indole-2-carbonyl)-hexahydro-1H-cyclopenta[c]pyrrole-1-carboxamide] | – | > 100 | 10 to 100 | ≥ 10 | 0.2 to 2 | > 10 | – | – | – | – | > 10 | > 10 | – | –
9 | COc1cccc2[nH]c(C(=O)N3Cc4ccccc4C[C@H]3C(=O)N[C@@H](C[C@@H]3CCNC3=O)C(=O)COCc3ccccc3)cc12 [Compound 99] | – | – | 10 to 100 | ≥ 10 | 2 to 20 | > 10 | – | – | > 10 | – | – | > 10 | – | > 10
10 | COc1cccc2[nH]c(C(=O)N3C[C@@H]4CCC[C@@H]4[C@H]3C(=O)N[C@@H](C[C@@H]3CCNC3=O)C(=O)C(=O)NCC(F)(F)F)cc12 [Compound 114] | 1 to 10 | > 50 | 10 to 100 | ≥ 10 | 0.2 to 2 | > 10 | 2 to 20 | – | – | – | – | – | – | –

Reference: US11952365B2, “Anti-viral compounds” (Aligos Therapeutics, Inc., priority 2020, dated 2024)
